From US6239129A, “Cyano-indole serotonin-reuptake inhibitor compounds” (Adir et Compagnie, priority 1999, dated 2001)
pKi: −log10 of the molar value. Counter-ions that a name gives are not always drawn.

Biological target: T1, Serotonin-reuptake Sites (Rattus norvegicus, UniProt P31652)
T1 construct: The membranes are prepared from rat frontal cortex; from tissue; host or cells: rat frontal cortex membranes
Assay: Determination of Affinity for Serotonin-reuptake Sites in the Rat ([^3 H]-paroxetine competition)
Format: binding
Details: read-out: dissociation constant Ki
Protocol: Determination of Affinity for Serotonin-reuptake Sites in the Rat
The incubation buffer contains 50 mM TRIS-HCl (pH 7.4), 120 mM NaCl and 5 mM KCl. Non-specific binding is determined using 10 μM citalopram. At the end of the incubation, the mixture is filtered through filters and washed three times with 5 ml of cooled buffer. The radioactivity retained on the filters is determined by liquid scintillation counting. The binding isotherms are analysed by non-linear regression to determine the IC50 values. The latter are converted into a dissociation constant (Ki) using the Cheng-Prusoff equation: […]

T1 sequence (P31652 whole entry): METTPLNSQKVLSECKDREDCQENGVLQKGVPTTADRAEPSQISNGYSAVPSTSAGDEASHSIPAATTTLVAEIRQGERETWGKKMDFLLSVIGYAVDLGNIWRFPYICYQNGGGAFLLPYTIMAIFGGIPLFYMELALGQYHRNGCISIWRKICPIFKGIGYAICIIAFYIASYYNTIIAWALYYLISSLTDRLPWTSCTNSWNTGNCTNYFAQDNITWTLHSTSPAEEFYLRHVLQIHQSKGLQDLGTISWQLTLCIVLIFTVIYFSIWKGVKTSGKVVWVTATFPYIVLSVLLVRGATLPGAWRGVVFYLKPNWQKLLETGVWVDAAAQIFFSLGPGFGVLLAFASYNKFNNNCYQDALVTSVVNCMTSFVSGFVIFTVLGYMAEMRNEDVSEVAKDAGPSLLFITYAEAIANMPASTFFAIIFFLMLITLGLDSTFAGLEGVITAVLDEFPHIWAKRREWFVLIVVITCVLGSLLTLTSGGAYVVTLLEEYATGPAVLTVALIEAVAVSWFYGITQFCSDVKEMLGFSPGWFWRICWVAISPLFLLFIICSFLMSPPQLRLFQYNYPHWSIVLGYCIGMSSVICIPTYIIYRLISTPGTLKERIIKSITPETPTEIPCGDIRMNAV

COc1cncnc1N1CCN(CCCn2ccc3ccc(C#N)cc32)CC1 [Example 1, 1-{3-[4-(5-Methoxy-4-pyrimidinyl)-1-piperazinyl]propyl}-1H-indole-6-carbonitrile dihydrochloride]
pKi: 8.01
